According to patent US20250101063A1, “POLYPEPTIDE COMPOUND AND USE THEREOF IN TREATMENT OF ENTERITIS” (Sichuan Gooddoctor Panxi Pharmaceutical Co., Ltd., priority 2022, published 2025):
Entries after “also recorded” stand apart in the source; their conditions may differ.

What was measured:
[1] = test system: TNBS-induced model of acute inflammatory bowel disease (UC) in SD rat; test: TNBS-induced model of acute inflammatory bowel disease (UC) in SD rat; type: in vivo
Excerpt: In this experiment, a rat model of ulcerative colitis was established by administering trinitrobenzene sulfonic acid (TNBS) to laboratory animal male SD rats for a single enema intervention. Acute colitis in rats induced by trinitrobenzene sulfonic acid (TNBS) is an immune response induced by cytokines secreted by Th1 type cells. […] This model is simple to establish and has good reproducibility. It is an experimental animal model widely used in evaluating drugs for the treatment of inflammatory bowel disease. […] During the experimental treatment period (D1-D14), the body weight and general clinical observation indicators (including but not limited to food intake, water intake, activity level and defecation, etc.) of the animals in each experimental group were dynamically collected. At the same time, based on the relevant scoring standards for the disease activity index of ulcerative colitis, the reactivity such as the weight loss degree, stool morphology and trait, and bloody stool of the animals in each experimental group after TNBS induction were scored, and the disease activity index (DAI) of ulcerative colitis was calculated, once a day for 14 consecutive days. At the end point of the experiment, colon tissues of animals in each experimental group were collected, and the length and weight of the colon were measured and then the non-autopsy images were collected. Then the colon was cut open along the intestinal wall longitudinally and autopsy images were collected. Based on the “Criteria for Scoring Gross Morphological Manifestations of the Colon”, the gross damage with respect to colon adhesions, colon ulcers and inflammation of animals in each experimental group was observed and scored. Ulcer images were collected under a stereomicroscope and the area of colon ulcer foci was calculated, followed by routine fixation.

[2] = test system: zebrafish model of intestinal mucosal injury; test: Efficacy in relieving colitis: intestinal lumen area in TNBS-treated zebrafish; type: in vivo; conditions: for Intestinal lumen area (pixels, mean ± SE): 2 days after TNBS, n = 10
In short: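 TNBS in water for 2 days at 28 °C in 3 dpf wild-type AB zebrafish, then test polypeptide in water for 2 days at 28 °C at 250, 500 or 1000 μg/mL; later rounds used 1000 μg/mL. Prednisone control at 15.0 μg/mL. Intestinal lumen area imaged in 10 fish/group, mean±SE.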

[3] = D 0-D 14, compound 12: 0.8 mg/kg, mesalazine: 30.0 mg/kg, enema once a day 14 days, mean ± SD
[4] = D 14, compound 12: 0.8 mg/kg, mesalazine: 30.0 mg/kg, enema once a day 14 days, mean ± SD
[5] = experimental endpoint, compound 12: 0.8 mg/kg, mesalazine: 30.0 mg/kg, enema once a day 14 days, mean ± SD
[6] = set treatment regimen, enema once a day 14 days, vs model control group
[7] = set treatment regimen, experimental endpoint, vs model control group

Substance: Pro-Val-Pro-Gln (PVPQ; printed: Pro-Val-Pro-Gln) [Compound 12]
- Body weight, Grouping day (D 0, g) ([1]; D 0, before treatment, compound 12: 0.8 mg/kg, mesalazine: 30.0 mg/kg, enema once a day, mean ± SD): 276.36 ± 7.47 g
- DAI score AUC(0-14 d) (D 0-D 14) [1, 3]: 46.40 ± 3.68
- Weight change range (D 0-D 14, %) [1, 3]: −1.52 ± 12.20%
- DAI score, Experimental day 1 (D 1, point) ([1]; D 1, compound 12: 0.8 mg/kg, mesalazine: 30.0 mg/kg, enema once a day, mean ± SD): 4.1 ± 0.6 point
- DAI score, Experimental day 3 (D 3, point) ([1]; D 3, compound 12: 0.8 mg/kg, mesalazine: 30.0 mg/kg, enema once a day, mean ± SD): 4.9 ± 1.0 point
- Body weight, Experimental day 5 (D 5, g) ([1]; D 5, compound 12: 0.8 mg/kg, mesalazine: 30.0 mg/kg, enema once a day, mean ± SD): 244.90 ± 21.75 g
- Body weight, Experimental endpoint (D 14, g) [1, 4]: 272.00 ± 33.21 g
- DAI score, Experimental endpoint (D 14, point) [1, 4]: 1.4 ± 1.8 point
- Colon length (cm) [1, 5]: 13.74 ± 1.97 cm
- Colon ulcer and inflammation score (point) [1, 5]: 2.30 ± 0.82 point
- Colon ulcer area (cm^2) [1, 5]: 3.79 ± 1.63^# cm^2
- Colon weight [1, 5]: 2.10 ± 0.19 g
- Colon weight/length ratio (100* g/cm) [1, 5]: 15.68 ± 3.14# 100* g/cm
- Colonic adhesion score (point) [1, 5]: 1.20 ± 0.63 point
- Overall therapeutic effect in the rat model of ulcerative colitis (in words) ([1]; set treatment regimen): significant therapeutic effects
- Effect on disease progression of ulcerative colitis / DAI scores (in words) [1, 6]: significant improvement effect on the disease progression of ulcerative colitis
- Effect on weight gain inhibition / weight loss response of model animals (in words) [1, 6]: no obvious improved therapeutic effect; also recorded: did not show a significant weight improvement effect
- Effect on colon atrophy process / colon weight/length ratio (in words) [1, 7]: colon weight/length ratio was significantly decreased
- Effect on gross colon injury status (colonic adhesion, ulcer and inflammation) and colon ulcer area (in words) [1, 7]: obvious therapeutic effects; also recorded: significant therapeutic effects on the gross damage manifestation of the colon
- Intestinal lumen area (pixels, mean ± SE) ([2]; 250 μg/mL in water): 48857 ± 5649 pixels
- Intestinal lumen area (pixels, mean ± SE) ([2]; 500 μg/mL in water): 43802 ± 3228 pixels
- Intestinal lumen area (pixels, mean ± SE) ([2]; 1000 μg/mL in water): 26727 ± 2106 pixels
- Activity in relieving intestinal lumen dilatation ([2]; 1000 μg/mL, significance vs model control group of the same batch): ** (** p < 0.01)
- Intestinal lumen area compared with the model control group (in words) ([2]; 250, 500, 1000 μg/mL, Table 4): significant statistical differences compared with the model control group
